In patent US20140106967A1, “AUXIN PLANT GROWTH REGULATORS” (The Governors of The University of Alberta, priority 2011, published 2014):

How the values were obtained:
canola cv. Peace = test: Greenhouse canola study, foliar auxin spray at green bud stage, with or without heat stress (Tables C1-C4); format: in vivo, Brassica napus; settings: for % pod set / Seed yield / Total number of flowers / Total number of pods with developing seeds / Total number of racemes / Total number undeveloped pods: heat stress 33° C. 6 h/day, 6 days (Table C2); for % pod set per plant / Seed yield (g) per plant / Total number of flowers per plant / Total number of pods with developing seeds per plant / Total number of racemes per plant / Total number undeveloped pods per plant: non-heat stress (Table C1)
Method: Canola seeds (Brassica napus) from the cultivar Peace were planted at an approximate depth of 1 cm in 5 inch square plastic pots (6 inch pot depth; 4 seeds per pot) in 1:1 Sunshine #4 potting mix (Sun Gro Horticulture, Vancouver, Canada) and sand. The seedlings were thinned to one seedling per pot approximately 2 weeks after seeding. Plants were grown at the University of Alberta in a greenhouse from Nov. 14, 2011 to Mar. 5, 2012. The average temperature was approximately 18° C. day/16° C. night (Nov. 14, 2011 to Feb. 8, 2012) then 21° C. day/19° C. night from Feb. 8 to Mar. 5, 2012. The plants also received supplemental lighting daily (average photon flux density of 250 μE m^−2s^−2) for 16 hours per day (from 6 am to 10 pm).
The auxins, 4-methyl-indole-3-acetic acid (4-ME-IAA) or 4-chloro-indole-3-acetic acid (4-Cl-IAA) at 1×10^−7, 1×10^−6, 1×10^−5, or 1×10^−4M in aqueous 0.1% (v/v) Tween 80 or a control solution (aqueous 0.1% [v/v] Tween 80) were applied one time as a foliar spray to canola plants at the green bud stage (BBCH scale 51; prior to bolting when flower buds are visible from above, but they are tightly clustered and have not extended above smallest leaves surrounding the inflorescence). The experiment was arranged in a completely randomized design in the greenhouse.
The heat stress treatment was imposed by moving plants to receive the heat stress from the greenhouse into a growth chamber for 6 days. The light cycle began at 7:00 hours at a 19° C. air temperature. The heat treatment began at 11:00 hours (33° C. air temperature) and was maintained for 6 hours (until 17:00 hours). Following the heat treatment, the remainder of the light cycle was maintained at a 22° C. air temperature. The dark cycle (began at 23:00 hours) was maintained at 17° C. The photoperiod was 16 h light/8 h dark at an average photon flux density of 492 μE m^−2s^−2 using 54W/835/HO high fluorescent bulbs, Phillips, Holland. This heat treatment cycle was imposed for 6 days. The plants were returned to the greenhouse after the heat stress treatment to develop to maturity.

wheat 'Harvest HRS' = test: Wheat field experiment (Table W1); format: in vivo, Triticum aestivum; settings: 1×10^−5 M
Method: The wheat (Triticum aestivum) cultivar Harvest HRS was seeded on May 20, 2011 with a target of 250 seedlings per m^2 into a field plot located at the St. Albert Field-Research Station of the University of Alberta, St. Albert, Alberta, Canada that was seeded with canola the previous season. Eight 2×4 m plots were cut out of a larger field plot with a mower producing two rows of four 2×4 m plots with a 1 m buffer between each plot and 4 m between the 4-plot rows. The hormone treatments were randomly assigned to the 2×4 plots. Aqueous solutions of 4-ME-IAA at 1×10^−5 M in 0.1% (v/v) Tween 80 or control solutions (0.1% [v/v]Tween 80) were sprayed Jul. 15, 2011 in slightly breezy (8 km/h), overcast weather, temperature 16° C. Three hours later, the sun emerged and the ambient temperature rose from 16° C. to 21° C. The relative humidity at the time of spraying was 75%. On average, 15% of the plants in the plots had their first florets open at the time of hormone application. A separate Chapin 20000-type 4 L pneumatic sprayer was used for applying the 4-ME-IAA and the control solutions; each sprayer was equipped with a medium-delivery blue fan nozzle designed to deliver 1.4 L per minute at the normal operating pressure of 40 PSI. Each plot was sprayed with a total of 0.91 L of solution to obtain uniform coverage.

[1] = test system: PsGA20ox1, PsGA3ox1, PsGA2ox1; test: GA biosynthesis/catabolism gene expression in pea pericarp; format: in vivo, Pisum sativum; settings: 24 h treatment period
Method: During early pea fruit growth, the physiological roles of 4-chloroindole-3-acetic acid (4-Cl-IAA) and IAA, both natural pea auxins, in regulating gibberellin (GA) 20-oxidase gene expression (PsGA20ox1) were tested with 4-position, ring-substituted auxins that have a range of biological activities (fruit growth). The effect of seeds, and natural and synthetic auxins (4-Cl-IAA, and IAA; 4-Me-IAA, 4-Et-IAA and 4-F-IAA, respectively), and auxin concentration (4-Cl-IAA) on PsGA20ox1 mRNA levels in pea pericarp were investigated over a 24 h treatment period. The ability of certain 4-substituted auxins to increase PsGA20ox1 mRNA levels in deseeded pericarp was correlated with their ability to stimulate pericarp growth.

[2] = At maturity, 20 spikes per plot

Cc1cccc2[nH]cc(CC(=O)O)c12 [4-ME-IAA, 4-methyl-indole-3-acetic acid]
leaf epinasty (canola cv. Peace; 1×10^−4 M, 24 hours after treatment, milder under heat stress): leaf epinasty was observed
% pod set (canola cv. Peace; 1×10^−4 M): 60 ± 1%
Seed yield (canola cv. Peace; 1×10^−4 M): 6.0 ± 1.0 g
Total number of flowers (canola cv. Peace; 1×10^−4 M): 326 ± 34
Total number of pods with developing seeds (canola cv. Peace; 1×10^−4 M): 196 ± 19
Total number of racemes (canola cv. Peace; 1×10^−4 M): 12 ± 1
Total number undeveloped pods (canola cv. Peace; 1×10^−4 M): 34 ± 10
% pod set per plant (canola cv. Peace; 1×10^−4 M): 57 ± 2%
Seed yield (g) per plant (canola cv. Peace; 1×10^−4 M): 4.9 ± 0.4 g
Total number of flowers per plant (canola cv. Peace; 1×10^−4 M): 261 ± 14
Total number of pods with developing seeds per plant (canola cv. Peace; 1×10^−4 M): 148 ± 9
Total number of racemes per plant (canola cv. Peace; 1×10^−4 M): 11 ± 1
Total number undeveloped pods per plant (canola cv. Peace; 1×10^−4 M): 16 ± 2
increase in total number of flowers per plant vs control (canola cv. Peace; 1×10^−5 M, heat stress): 43%
increase in total number of racemes per plant vs control (canola cv. Peace; 1×10^−5 M, heat stress): 38%
% pod set (canola cv. Peace; 1×10^−5 M): 50 ± 2%
Seed yield (canola cv. Peace; 1×10^−5 M): 5.9 ± 1.2 g
Total number of flowers (canola cv. Peace; 1×10^−5 M): 520 ± 102
Total number of pods with developing seeds (canola cv. Peace; 1×10^−5 M): 259 ± 55
Total number of racemes (canola cv. Peace; 1×10^−5 M): 18 ± 2
Total number undeveloped pods (canola cv. Peace; 1×10^−5 M): 64 ± 13
% pod set per plant (canola cv. Peace; 1×10^−5 M): 62 ± 5%
Seed yield (g) per plant (canola cv. Peace; 1×10^−5 M): 5.7 ± 0.7 g
Total number of flowers per plant (canola cv. Peace; 1×10^−5 M): 265 ± 14
Total number of pods with developing seeds per plant (canola cv. Peace; 1×10^−5 M): 165 ± 18
Total number of racemes per plant (canola cv. Peace; 1×10^−5 M): 10 ± 0
Total number undeveloped pods per plant (canola cv. Peace; 1×10^−5 M): 22 ± 6
% pod set (canola cv. Peace; 1×10^−6 M): 44 ± 7%
Total number of flowers (canola cv. Peace; 1×10^−6 M): 435 ± 89
Total number of pods with developing seeds (canola cv. Peace; 1×10^−6 M): 167 ± 15
Total number of racemes (canola cv. Peace; 1×10^−6 M): 13 ± 2
Total number undeveloped pods (canola cv. Peace; 1×10^−6 M): 71 ± 37
% pod set per plant (canola cv. Peace; 1×10^−6 M): 62 ± 3%
Total number of flowers per plant (canola cv. Peace; 1×10^−6 M): 250 ± 21
Total number of pods with developing seeds per plant (canola cv. Peace; 1×10^−6 M): 155 ± 16
Total number of racemes per plant (canola cv. Peace; 1×10^−6 M): 10 ± 1
Total number undeveloped pods per plant (canola cv. Peace; 1×10^−6 M): 17 ± 5
% pod set (canola cv. Peace; 1×10^−7 M): 52 ± 4%
Seed yield (canola cv. Peace; 1×10^−7 M): 5.4 ± 0.9 g
Total number of flowers (canola cv. Peace; 1×10^−7 M): 418 ± 25
Total number of pods with developing seeds (canola cv. Peace; 1×10^−7 M): 213 ± 6
Total number of racemes (canola cv. Peace; 1×10^−7 M): 14 ± 1
Total number undeveloped pods (canola cv. Peace; 1×10^−7 M): 50 ± 26
increase in total number of pods with developing seeds per plant vs control (canola cv. Peace; 1×10^−7 M, heat stress (6 hours at 33° C. per day for 6 days)): 13%
increase in seed yield vs control (canola cv. Peace; 1×10^−7 M, non-heat stress): 22%
increase in total number of pods with developing seeds per plant vs control (canola cv. Peace; 1×10^−7 M, non-heat stress): 10%
% pod set per plant (canola cv. Peace; 1×10^−7 M): 66 ± 1%
Seed yield (g) per plant (canola cv. Peace; 1×10^−7 M): 5.5 ± 0.4 g
Total number of flowers per plant (canola cv. Peace; 1×10^−7 M): 256 ± 12
Total number of pods with developing seeds per plant (canola cv. Peace; 1×10^−7 M): 170 ± 7
Total number of racemes per plant (canola cv. Peace; 1×10^−7 M): 10 ± 1
Total number undeveloped pods per plant (canola cv. Peace; 1×10^−7 M): 17 ± 3
increase in seed number per floral spike (wheat 'Harvest HRS'): 10%
increase in seed weight per floral spike (wheat 'Harvest HRS'): 12%
Seed number per spike (wheat 'Harvest HRS'; At maturity): 27.5 ± 1.3
Seed weight per spike (wheat 'Harvest HRS'; At maturity): 1.03 ± 0.05 g
Total seed number (wheat 'Harvest HRS'; [2]): 550.8 ± 26.6
Total seed weight (wheat 'Harvest HRS'; [2]): 20.6 ± 1.1 g
Number of spikes per plant (wheat 'Harvest HRS'; Pre-harvest): 3.825 ± 0.207
Plant height (wheat 'Harvest HRS'; Pre-harvest): 94.5 ± 0.4 cm
PsGA20ox1 mRNA levels in deseeded pericarp [1]: second most active auxin
